Laboratory results published in ChEMBL document CHEMBL1126795, “Amesergide and structurally related nor-D-ergolines: 5HT2 receptor interactions in the rat” (J Med Chem, 1993).

Assay: Concentration required to inhibit pressor response to serotonin after 15 min i.v. administration of compound mediated via activation of vascular 5-HT2 receptors in rat
Type: functional, organism-based
With `CN(CCC(=O)NC1CCCCC1)[C@@H]1Cc2cccc3[nH]cc(c23)C1` the Concentration was 1 mg/kg. In the case of `CCCn1cc2c3c(cccc31)C[C@@H](N(C)CCC(=O)NC1CCCCC1)C2`, the Concentration is reported as 1 mg/kg. Compound `CN(CCC(=O)NC1CCCCC1)[C@H]1Cc2cccc3[nH]cc(c23)C1` has a Concentration of 1 mg/kg.
